Source: PMC11784839, “Monoaminergic neurotransmitters are bimodal effectors of tau aggregation” (Science Advances, 2025)

Target: tau (Homo sapiens, UniProt P10636)
Assay: MCE Phenols Library screening, tau biosensor cell seeding assay (AvZ)
Assay type: cell-based
Conditions: for Z repl 1 / Z Repl 2: Z score; for Z repl 1 / raw data 1: replicate 1; for Z Repl 2 / raw data 2: replicate 2; for AvZ (average z score of seeding, SDs from the mean level of seeding): 10 μM phenol in cell cultures, AD brain homogenate preincubated 16 hours, two biological replicates, positive = catalyzes seeding, negative = inhibits
[1] = average Z score of two replicates, Phenols Library screen
[2] = average Z score of the two replicates, MCE Phenols Library screen
[3] = average puncta of the two replicates
[4] = average Z score of the two replicates, tau seeding

tau, sequence (P10636 623-695 limits assumed): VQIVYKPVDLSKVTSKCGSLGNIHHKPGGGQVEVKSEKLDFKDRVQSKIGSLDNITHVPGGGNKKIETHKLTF

| SMILES | Z repl 1 | Z Repl 2 | av Z [1] | av puncta (average of raw data 1 and 2) | raw data 1 (puncta) | raw data 2 (puncta) | av Z [2] | av puncta [3] | av Z [4] | raw data 1 (raw puncta) | raw data 2 (raw puncta) | AvZ (average z score of seeding, SDs from the mean level of seeding) |
| --- | --- | --- | --- | --- | --- | --- | --- | --- | --- | --- | --- | --- |
| COc1ccc(CCO[C@@H]2O[C@H](CO[C@@H]3O[C@H](CO)[C@H](O)[C@H](O)[C@H]3O)[C@@H](OC(=O)/C=C/c3ccc(O)c(OC)c3)[C@H](O[C@@H]3O[C@@H](C)[C@H](O)[C@@H](O)[C@H]3O)[C@H]2O)cc1O [Jionoside B1] | 0.183 | -0.42 | -0.118 | 18414.7 | 28546.2 | 8283.25 |  |  |  |  |  |  |
| COc1ccc(-c2oc3cc(O)cc(O)c3c(=O)c2O)cc1 [Kaempferide] | -0.102 | -1.05 |  |  | 25119.1 | 1554.77 | -0.576 | 13337 |  |  |  |  |
| C[C@@H]1O[C@@H](Oc2cc(O)c3c(=O)c(O[C@@H]4O[C@@H](C)[C@H](O)[C@@H](O)[C@H]4O)c(-c4ccc(O)cc4)oc3c2)[C@H](O)[C@H](O)[C@H]1O [Kaempferitrin] | -1.403 | -0.446 |  | 8757.09 | 9507.36 | 8006.82 | -0.924 |  |  |  |  |  |
| O=C(O)[C@H]1O[C@@H](Oc2c(-c3ccc(O)cc3)oc3cc(O)cc(O)c3c2=O)[C@H](O)[C@@H](O)[C@@H]1O [Kaempferol 3-O-?-D-glucuronide] | 0.499 | 0.597 |  | 25744.8 | 32345.4 | 19144.3 |  |  | 0.548 |  |  |  |
| O=c1c(O[C@@H]2O[C@H](CO[C@@H]3O[C@H](CO)[C@@H](O)[C@H](O)[C@H]3O)[C@@H](O)[C@H](O)[C@H]2O)c(-c2ccc(O)cc2)oc2cc(O)cc(O)c12 [Kaempferol 3-O-gentiobioside] | 0.421 | -0.356 | 0.032 | 20180.4 | 31398.7 | 8962.19 |  |  |  |  |  |  |
| O=c1c(O[C@@H]2O[C@H](CO)[C@@H](O)[C@H](O)[C@H]2O[C@@H]2O[C@H](CO)[C@@H](O)[C@H](O)[C@H]2O)c(-c2ccc(O)cc2)oc2cc(O)cc(O)c12 [Kaempferol 3-O-sophoroside] | -0.587 | 0.035 |  |  |  |  | -0.276 | 16225.3 |  | 19307.9 | 13142.7 |  |
| C[C@@H]1O[C@@H](O[C@H]2[C@H](Oc3c(-c4ccc(O)cc4)oc4cc(O)cc(O)c4c3=O)O[C@H](CO)[C@@H](O)[C@@H]2O)[C@H](O)[C@H](O)[C@H]1O [Kaempferol 3-neohesperidoside] | -1.386 | -0.619 |  | 7935.47 | 9710.86 | 6160.09 | -1.002 |  |  |  |  |  |
| C[C@H]1O[C@@H](O[C@H]2[C@H](Oc3c(-c4ccc(O)cc4)oc4cc(O)cc(O)c4c3=O)O[C@@H](CO)[C@H](O)[C@H]2O)[C@H](O)[C@@H](O)[C@@H]1O [Kaempferol-3-O-glucorhamnoside] | -0.601 | -1.001 |  | 10603.6 | 19130.8 | 2076.39 | -0.801 |  |  |  |  |  |
| O=c1c(O)c(-c2ccc(O)cc2)oc2cc(O)cc(O)c12 [Kaempferol] | -0.004 | -0.903 |  |  |  |  | -0.454 | 14707.1 |  | 26297.7 | 3116.65 |  |
| O=C(CCc1ccc(O)c(O)c1)NCCCNCCCCNCCCNC(=O)CCc1ccc(O)c(O)c1 [Kukoamine A] | -0.156 | -0.952 |  |  | 24479.5 | 2602.81 | -0.554 | 13541.2 |  |  |  |  |
| NCCCN(CCCCNCCCNC(=O)CCc1ccc(O)c(O)c1)C(=O)CCc1ccc(O)c(O)c1 [Kukoamine B] | -1.263 | -0.72 |  | 8130.71 | 11188.8 | 5072.6 | -0.992 |  |  |  |  |  |
| OC[C@H]1O[C@@H](Oc2cc3c(O)cc(O)cc3[o+]c2-c2ccc(O)c(O)c2)[C@H](O)[C@@H](O)[C@@H]1O.[Cl-] [Kuromanin (chloride)] | -0.084 | -0.888 |  |  | 25345.8 | 3284.04 | -0.486 | 14314.9 |  |  |  |  |
| C=C(C)[C@H](CC=C(C)C)Cc1c(O)cc(O)c2c1O[C@H](c1ccccc1O)CC2=O [Kushenol A] | 0.183 | 1.024 |  | 26122.8 | 28541 | 23704.6 |  |  | 0.603 |  |  |  |
| C=C(C)[C@H](CC=C(C)C)Cc1c(O)cc(OC)c2c1O[C@H](c1ccc(O)cc1O)[C@@H](O)C2=O [Kushenol I] | 0.564 | -0.398 | 0.083 | 20816.6 | 33117.8 | 8515.32 |  |  |  |  |  |  |
| CC(C)=CCc1c(-c2ccc(O)cc2O)oc2c([C@H]3C=C(C)C[C@@H](c4ccc(O)cc4O)[C@@H]3C(=O)c3ccc(O)cc3O)c(O)cc(O)c2c1=O [Kuwanon G] | 0.063 | 0.629 |  | 23290.6 | 27102.4 | 19478.8 |  |  | 0.346 |  |  |  |
| CC(C)=CCc1c(O)ccc(C(=O)[C@@H]2[C@@H](c3c(O)cc(O)c4c(=O)c(CC=C(C)C)c(-c5ccc(O)cc5O)oc34)C=C(C)C[C@H]2c2ccc(O)cc2O)c1O [Kuwanon H] | -0.22 | 0.532 |  | 21077.1 | 23703 | 18451.1 |  |  | 0.156 |  |  |  |
| N[C@@H](Cc1c[nH]c2ccc(O)cc12)C(=O)O [L-5-Hydroxytryptophan] | 0.279 | -0.269 |  | 19792.1 | 29696.2 | 9887.95 |  |  |  |  |  | 0.005 |
| COc1cc2c(cc1O)-c1c(OC)c(O)cc3c1[C@H](C2)NCC3 [Laetanine] | -0.508 | -0.181 |  |  |  |  | -0.344 | 15544.8 |  | 20251.6 | 10838.1 |  |
| CC[C@@H](C(=O)[C@@H](C)[C@@H](O)[C@H](C)CCc1ccc(C)c(O)c1C(=O)O)[C@H]1O[C@](CC)([C@H]2CC[C@](O)(CC)[C@H](C)O2)C[C@@H]1C [Lasalocid] | 0.41 | -0.218 | 0.096 | 20851.6 | 31268.6 | 10434.5 |  |  |  |  |  |  |
| C=C(C)[C@H](CC=C(C)C)Cc1c(O)cc(O)c2c1O[C@H](c1ccc(O)cc1OC)CC2=O [Leachianone A] | -0.298 | 0.052 | -0.123 | 18045.6 | 22771.5 | 13319.6 |  |  |  |  |  |  |
| COc1cc(C(=O)OCCCCNC(=N)N)cc(OC)c1O [Leonurine] | 1.449 | 1.251 |  | 34936.6 | 43747.9 | 26125.3 |  |  |  |  |  | 1.35 |
| Oc1cc(O)c2c(c1)O[C@H](c1ccc(O)c(O)c1)[C@@H](O)[C@H]2O [Leucocyanidin] | -0.147 | -0.356 |  |  |  |  | -0.251 | 16774.6 |  | 24584.1 | 8965.07 |  |
| COc1c(/C=C/C(=O)c2ccc(O)c(CC=C(C)C)c2)ccc(O)c1O [Licochalcone D] | 0.138 | 0.907 |  | 25231 | 28009.4 | 22452.6 |  |  | 0.523 |  |  |  |
